pIC50: −log10 of the molar value.
Tests used:
[1] = molecular target: T1, hRIPK1 (aa 1-375) fusion protein (Homo sapiens, UniProt Q13546); test: ADP-Glo kinase assay: catalytic activity of RIPK1 (autophosphorylation, conversion of ATP to ADP); format: biochemical
T1 construct: hRIPK1 (aa 1-375) fusion protein
T1 sequence (Q13546 1-375): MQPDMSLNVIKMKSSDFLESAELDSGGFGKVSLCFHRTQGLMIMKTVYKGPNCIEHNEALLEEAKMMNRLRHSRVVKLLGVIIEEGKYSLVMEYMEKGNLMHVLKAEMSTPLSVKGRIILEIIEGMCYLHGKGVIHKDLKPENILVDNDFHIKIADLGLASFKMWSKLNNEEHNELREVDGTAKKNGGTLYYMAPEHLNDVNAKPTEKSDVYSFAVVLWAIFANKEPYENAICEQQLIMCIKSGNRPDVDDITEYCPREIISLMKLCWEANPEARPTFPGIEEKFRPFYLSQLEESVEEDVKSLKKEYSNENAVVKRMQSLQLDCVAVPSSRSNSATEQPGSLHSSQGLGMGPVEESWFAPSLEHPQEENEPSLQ
Procedure, shortened: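 hRIPK1 (aa 1-375) fusion protein (3.6 μg/ml final) was preincubated 30 min at rt with compound (33300-1.69 nM, 1% DMSO), then 50 μM ATP was added for 240 min at rt. ADP from autophosphorylation was measured by ADP-Glo luminescence and curves fitted by nonlinear regression.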

U937 cells = test: Cellular assay in U937 cells: activity of RIPK1 inhibitors on TNFα/zVAD.fmk-induced cell death (necroptosis), CellTiter 96 AQueous (MTS) readout; format: cell-based; conditions: Homo sapiens, U-937
Procedure, shortened: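 Necroptosis was measured by viable-cell MTS reduction (4 h, absorbance 490 nm) after overnight (18–24 h) 37° C culture. Cell suspensions of U937 cells carried TNFα (100 ng/ml) plus zVAD.fmk (50 μM) before compound was added. A 10-point curve (10 μM–0.26 nM or 1 μM–0.07 nM) was run in duplicate, normalised to the control lacking TNFα/zVAD.fmk.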

pIC50 [1] | Structure (SMILES) | pIC50 (U937 cells)
7.49 | COc1cncc([C@@H]2CCON2C(=O)[C@H]2CC[C@H](Cn3ccc4ncc(C#N)cc43)CC2)n1 [compound 185, trans-1-[[4-[(3S)-3-(6-methoxypyrazin-2-yl)isoxazolidine-2-carbonyl]cyclohexyl]methyl]pyrrolo[3,2-b]pyridine-6-carbonitrile] | 7.47
7.64 | COc1cncc([C@@H]2CCON2C(=O)[C@H]2CC[C@H](Cn3ncc4ncc(C#N)cc43)CC2)n1 [compound 186, trans-1-[[4-[(3S)-3-(6-methoxypyrazin-2-yl)isoxazolidine-2-carbonyl]cyclohexyl]methyl]pyrazolo[4,3-b]pyridine-6-carbonitrile] | 7.41
7.29 | N#Cc1cnc2cnn(C[C@H]3CC[C@H](C(=O)N4OCC[C@H]4c4ccccn4)CC3)c2c1 [compound 187, trans-1-[[4-[(3S)-3-(2-pyridyl)isoxazolidine-2-carbonyl]cyclohexyl]methyl]pyrazolo[4,3-b]pyridine-6-carbonitrile] | 6.92
7.43 | N#Cc1cnc2ccn(C[C@H]3CC[C@H](C(=O)N4OCC[C@H]4c4ccccn4)CC3)c2c1 [compound 188, trans-1-[[4-[(3S)-3-(2-pyridyl)isoxazolidine-2-carbonyl]cyclohexyl]methyl]pyrrolo[3,2-b]pyridine-6-carbonitrile] | 6.91
6.86 | COc1cncc([C@@H]2CCON2C(=O)[C@H]2CC[C@H](Cn3cc4ccc(C#N)cc4n3)CC2)n1 [compound 189, trans-2-[[4-[(3S)-3-(6-methoxypyrazin-2-yl)isoxazolidine-2-carbonyl]cyclohexyl]methyl]indazole-6-carbonitrile] | 6.21
7.89 | COc1cncc([C@@H]2CCON2C(=O)[C@H]2CC[C@H](Cn3ncc4ccc(C#N)cc43)CC2)n1 [compound 190, trans-1-[[4-[(3S)-3-(6-methoxypyrazin-2-yl)isoxazolidine-2-carbonyl]cyclohexyl]methyl]indazole-6-carbonitrile] | 8.40
8.00 | NC(=O)c1cc(C[C@H]2CC[C@H](C(=O)N3OCC[C@H]3c3ccc(F)cc3)CC2)ccc1F [compound 191, trans-2-fluoro-5-[[4-[(3S)-3-(4-fluorophenyl)isoxazolidine-2-carbonyl]cyclohexyl]methyl]benzamide] | 8.05
8.30 | NC(=O)c1cc(C[C@H]2CC[C@H](C(=O)N3OCC[C@H]3c3cc(F)cc(F)c3)CC2)ccc1F [compound 192, trans-5-[[4-[(3S)-3-(3,5-difluorophenyl)isoxazolidine-2-carbonyl]cyclohexyl]methyl]-2-fluoro-benzamide] | 8.52
8.00 | NC(=O)c1cc(C[C@H]2CC[C@H](C(=O)N3OCC[C@H]3c3cnccn3)CC2)ccc1F [compound 193, trans-2-fluoro-5-[[4-[(3S)-3-pyrazin-2-ylisoxazolidine-2-carbonyl]cyclohexyl]methyl]benzamide] | 7.85
7.68 | N#Cc1cncc([C@@H]2CCON2C(=O)[C@H]2CC[C@H](Cc3ccc(F)c(C(N)=O)c3)CC2)c1 [compound 194, trans-5-[[4-[(3S)-3-(5-cyano-3-pyridyl)isoxazolidine-2-carbonyl]cyclohexyl]methyl]-2-fluoro-benzamide] | 8.00
7.92 | N#Cc1cc(F)cc([C@@H]2CCON2C(=O)[C@H]2CC[C@H](Cc3ccc(F)c(C(N)=O)c3)CC2)c1 [compound 195, trans-5-[[4-[(3S)-3-(3-cyano-5-fluoro-phenyl)isoxazolidine-2-carbonyl]cyclohexyl]methyl]-2-fluoro-benzamide] | 8.22
7.12 | N#Cc1ccc2cn(C[C@H]3CC[C@H](C(=O)N4OCC[C@H]4c4cnccn4)CC3)nc2c1 [compound 196, trans-2-[[4-[(3S)-3-pyrazin-2-ylisoxazolidine-2-carbonyl]cyclohexyl]methyl]indazole-6-carbonitrile] | 6.42
7.62 | Cc1ncc(F)cc1C[C@H]1CC[C@H](C(=O)N2OCC[C@H]2c2cncc(C#N)c2)CC1 [compound 197, trans-5-[(3S)-2-[4-[(5-fluoro-2-methyl-3-pyridyl)methyl]cyclohexanecarbonyl]isoxazolidin-3-yl]pyridine-3-carbonitrile] | 8.40
7.77 | Cc1nc([C@@H]2CCON2C(=O)[C@H]2CC[C@H](Cn3ccc4ncc(C#N)cc43)CC2)cs1 [compound 198, trans-1-[[4-[(3S)-3-(2-methylthiazol-4-yl)isoxazolidine-2-carbonyl]cyclohexyl]methyl]pyrrolo[3,2-b]pyridine-6-carbonitrile] | 8.15
7.74 | Cc1nc([C@@H]2CCON2C(=O)[C@H]2CC[C@H](Cn3ncc4ncc(C#N)cc43)CC2)cs1 [compound 199, trans-1-[[4-[(3S)-3-(2-methylthiazol-4-yl)isoxazolidine-2-carbonyl]cyclohexyl]methyl]pyrazolo[4,3-b]pyridine-6-carbonitrile] | 7.29
7.54 | N#Cc1ccc2cnn(C[C@H]3CC[C@H](C(=O)N4OCC[C@H]4c4cnccn4)CC3)c2c1 [compound 200, trans-1-[[4-[(3S)-3-pyrazin-2-ylisoxazolidine-2-carbonyl]cyclohexyl]methyl]indazole-6-carbonitrile] | 8.40
7.72 | Cc1nc([C@@H]2CCON2C(=O)[C@H]2CC[C@H](Cn3ncc4cc(C#N)ccc43)CC2)cs1 [compound 202, trans-1-[[4-[(3S)-3-(2-methylthiazol-4-yl)isoxazolidine-2-carbonyl]cyclohexyl]methyl]indazole-5-carbonitrile] | 7.41
6.90 | Cc1nc([C@@H]2CCON2C(=O)[C@H]2CC[C@H](Cn3cc4ccc(C#N)cc4n3)CC2)cs1 [compound 203, trans-2-[[4-[(3S)-3-(2-methylthiazol-4-yl)isoxazolidine-2-carbonyl]cyclohexyl]methyl]indazole-6-carbonitrile] | 6.36
7.68 | Cc1nc([C@@H]2CCON2C(=O)[C@H]2CC[C@H](Cn3ncc4ccc(C#N)cc43)CC2)cs1 [compound 204, trans-1-[[4-[(3S)-3-(2-methylthiazol-4-yl)isoxazolidine-2-carbonyl]cyclohexyl]methyl]indazole-6-carbonitrile] | 8.70
7.51 | O=C([C@H]1CC[C@H](Cc2cc(F)c3ncnn3c2)CC1)N1OCC[C@H]1c1cnccn1 [compound 205, trans-[4-[(8-fluoro-[1,2,4]triazolo[1,5-a]pyridin-6-yl)methyl]cyclohexyl]-[(3S)-3-pyrazin-2-ylisoxazolidin-2-yl]methanone] | 6.95
7.80 | N#Cc1cc(F)cc([C@@H]2CCON2C(=O)[C@H]2CC[C@H](Cc3cc(F)c4ncnn4c3)CC2)c1 [compound 206, trans-3-fluoro-5-[(3S)-2-[4-[(8-fluoro-[1,2,4]triazolo[1,5-a]pyridin-6-yl)methyl]cyclohexanecarbonyl]isoxazolidin-3-yl]benzonitrile] | 8.05
7.64 | Cc1nccn1-c1cc(F)cc(C[C@H]2CC[C@H](C(=O)N3OCC[C@H]3c3ccc(F)cc3)CC2)c1 [compound 207, trans-[4-[[3-fluoro-5-(2-methylimidazol-1-yl)phenyl]methyl]cyclohexyl]-[(3S)-3-(4-fluorophenyl)isoxazolidin-2-yl]methanone] | 7.28
7.62 | Cc1nccn1-c1cc(F)cc(C[C@H]2CC[C@H](C(=O)N3OCC[C@H]3c3cc(F)cc(F)c3)CC2)c1 [compound 208, trans-[(3S)-3-(3,5-difluorophenyl)isoxazolidin-2-yl]-[4-[[3-fluoro-5-(2-methylimidazol-1-yl)phenyl]methyl]cyclohexyl]methanone] | 7.92
7.66 | Cc1nccn1-c1cc(F)cc(C[C@H]2CC[C@H](C(=O)N3OCC[C@H]3c3cnccn3)CC2)c1 [compound 209, trans-[4-[[3-fluoro-5-(2-methylimidazol-1-yl)phenyl]methyl]cyclohexyl]-[(3S)-3-pyrazin-2-ylisoxazolidin-2-yl]methanone] | 7.27
7.77 | Cc1nccn1-c1cc(F)cc(C[C@H]2CC[C@H](C(=O)N3OCC[C@H]3c3cncc(C#N)c3)CC2)c1 [compound 210, trans-5-[(3S)-2-[4-[[3-fluoro-5-(2-methylimidazol-1-yl)phenyl]methyl]cyclohexanecarbonyl]isoxazolidin-3-yl]pyridine-3-carbonitrile] | 7.60
7.74 | Cn1nccc1-c1cc(F)cc(C[C@H]2CC[C@H](C(=O)N3OCC[C@H]3c3cnccn3)CC2)c1 [compound 211, trans-[4-[[3-fluoro-5-(2-methylpyrazol-3-yl)phenyl]methyl]cyclohexyl]-[(3S)-3-pyrazin-2-ylisoxazolidin-2-yl]methanone] | 7.70
